Assay results as given in patent publication US20210221822A1, “TRICYCLIC DERIVATIVES INHIBITOR, PREPARATION METHOD, AND APPLICATIONS THEREOF” (Jiangsu Hansoh Pharmaceutical Group Co., Ltd., priority 2018, published 2021).
Read-outs that look alike come from different tables or passages of the source. Each block holds one compound with its values, some of them ahead of it.

How the values were obtained:
PI3Kα = molecular target: T1, PI3Kα (Homo sapiens, UniProt P42336); experiment: ADP-Glo lipid kinase assay, PI3Kα kinase activity; assay type: biochemical; settings: for IC50: ADP-Glo, 0.1 nM enzyme, 120 min, 50 μM ATP; for Selectivity of PI3Kα vs PI3Kβ: ratio of IC50 PI3Kβ to IC50 PI3Kα; for Selectivity of PI3Kα vs PI3Kγ: ratio of IC50 PI3Kγ to IC50 PI3Kα; for Selectivity of PI3Kα vs PI3Kδ: ratio of IC50 PI3Kδ to IC50 PI3Kα
T1 construct: purchased Promega V1721
T1 sequence (P42336 whole entry): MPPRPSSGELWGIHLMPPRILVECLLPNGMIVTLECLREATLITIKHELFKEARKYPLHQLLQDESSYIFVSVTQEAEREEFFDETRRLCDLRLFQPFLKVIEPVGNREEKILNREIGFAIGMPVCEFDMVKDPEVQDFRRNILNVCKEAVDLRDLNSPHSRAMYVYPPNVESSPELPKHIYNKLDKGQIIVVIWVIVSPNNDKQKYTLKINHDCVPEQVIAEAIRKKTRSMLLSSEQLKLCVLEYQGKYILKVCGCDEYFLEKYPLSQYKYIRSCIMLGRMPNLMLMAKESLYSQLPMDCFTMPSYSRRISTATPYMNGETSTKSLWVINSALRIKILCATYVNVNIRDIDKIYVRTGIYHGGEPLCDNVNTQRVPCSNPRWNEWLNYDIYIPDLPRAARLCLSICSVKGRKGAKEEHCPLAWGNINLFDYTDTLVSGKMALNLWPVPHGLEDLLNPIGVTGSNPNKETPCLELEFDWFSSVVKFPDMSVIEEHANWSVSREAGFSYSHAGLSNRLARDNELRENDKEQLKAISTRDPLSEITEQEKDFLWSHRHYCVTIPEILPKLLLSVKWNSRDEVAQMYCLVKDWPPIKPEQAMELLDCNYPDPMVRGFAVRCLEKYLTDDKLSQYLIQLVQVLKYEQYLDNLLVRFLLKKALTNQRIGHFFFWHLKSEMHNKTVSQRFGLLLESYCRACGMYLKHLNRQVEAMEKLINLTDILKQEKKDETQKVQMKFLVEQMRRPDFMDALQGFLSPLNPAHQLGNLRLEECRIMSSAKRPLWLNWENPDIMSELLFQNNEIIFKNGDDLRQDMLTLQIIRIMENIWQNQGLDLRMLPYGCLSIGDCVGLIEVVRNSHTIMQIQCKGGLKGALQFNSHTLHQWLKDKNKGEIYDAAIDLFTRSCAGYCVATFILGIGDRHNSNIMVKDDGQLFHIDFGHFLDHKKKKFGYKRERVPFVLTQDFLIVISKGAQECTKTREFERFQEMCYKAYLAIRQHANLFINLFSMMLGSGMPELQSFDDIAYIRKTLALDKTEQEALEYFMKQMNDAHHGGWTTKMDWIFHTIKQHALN
T1 sequence (P27986 whole entry partner): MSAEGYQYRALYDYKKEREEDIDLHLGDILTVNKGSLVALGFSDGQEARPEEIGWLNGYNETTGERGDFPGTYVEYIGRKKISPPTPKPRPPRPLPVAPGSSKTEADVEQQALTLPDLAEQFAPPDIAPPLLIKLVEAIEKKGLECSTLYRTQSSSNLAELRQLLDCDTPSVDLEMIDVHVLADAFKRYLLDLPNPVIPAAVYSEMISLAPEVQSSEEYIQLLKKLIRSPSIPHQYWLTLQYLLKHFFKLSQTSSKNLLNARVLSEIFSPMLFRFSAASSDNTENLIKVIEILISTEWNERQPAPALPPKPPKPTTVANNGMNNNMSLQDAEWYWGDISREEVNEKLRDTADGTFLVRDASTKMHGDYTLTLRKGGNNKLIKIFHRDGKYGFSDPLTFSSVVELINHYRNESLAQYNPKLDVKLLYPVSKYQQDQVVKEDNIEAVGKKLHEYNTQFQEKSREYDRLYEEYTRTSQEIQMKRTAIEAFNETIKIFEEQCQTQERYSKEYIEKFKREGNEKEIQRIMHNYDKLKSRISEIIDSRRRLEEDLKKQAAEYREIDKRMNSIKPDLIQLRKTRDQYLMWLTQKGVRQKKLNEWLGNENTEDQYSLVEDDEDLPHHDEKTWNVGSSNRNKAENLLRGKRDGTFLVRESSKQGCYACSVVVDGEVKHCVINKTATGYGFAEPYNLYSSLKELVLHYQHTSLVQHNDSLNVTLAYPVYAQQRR
Experimental: (§1) Experimental method: Promega's ADP-Glo lipid kinase assay method (Promega #V9102) was applied in this experiment. Lipid kinase PI3Kα/β/γ/δ catalyzed the generation of ADP from ATP in the presence of the substrate PIP2: 3PS and ATP. The lipid kinase activity was characterized by measuring the ADP content in the reaction, and the half inhibitory concentration IC50 of the compound on inhibiting PI3Kα/β/γ/δ kinase activity was thus obtained.
(§2) The kinase reaction was carried out in a white 384-well plate (Perkin Elmer #6007299). 2 μL of the compound solution of different concentrations diluted with ddH2O containing 1% DMSO was added to each well. 2 μL of ddH2O containing 1% DMSO was added to the positive control well. 2 μL of 0.1-2 nM PI3K kinase solution diluted with 5× kinase buffer (HEPES 250 mM, MgCl2 15 mM, NaCl 250 mM, BSA 0.05%) was added to each well. 2 μL of 5× kinase buffer was added to the negative control well. 4 μL of 50 μM substrate PIP2: 3PS (Promega #V1701) formulated with 10× Dilution buffer and ddH2O was added to all wells. Finally, 2 μL of […] ATP solution diluted with water was added to start the reaction. After the reaction was carried out at room temperature for 90 to 120 minutes, 10 μL of ADP-Glo Reagent (containing 10 mM MgCl2) was added to each well, and reacted at room temperature for 60 minutes to remove excess ATP in the reaction. 20 μL of Kinase Detection Reagent was added to each well, and reacted at room temperature in the dark for 20 minutes. The chemiluminescence value was measured by the BioTek Synergy H1 microplate reader.
(§3) The percentage inhibition data of the compound-treated well was calculated through the positive control well (DMSO control well) and negative control well (no kinase added) on the plate {% inhibition rate=100−[(test compound value−negative control value)]/(positive control value−negative control value)×100}. The IC50 value was calculated by fitting the data of different concentrations and corresponding percentage inhibition rates to a four-parameter nonlinear logic formula with GraphPad prism.

PI3Kγ = molecular target: T2, PI3Kγ (Homo sapiens, UniProt P48736); experiment: ADP-Glo lipid kinase assay, PI3Kγ kinase activity; assay type: biochemical; settings: 0.4 nM enzyme, 120 min, 50 μM ATP
T2 construct: purchased Thermofisher PV4786
T2 sequence (P48736 whole entry): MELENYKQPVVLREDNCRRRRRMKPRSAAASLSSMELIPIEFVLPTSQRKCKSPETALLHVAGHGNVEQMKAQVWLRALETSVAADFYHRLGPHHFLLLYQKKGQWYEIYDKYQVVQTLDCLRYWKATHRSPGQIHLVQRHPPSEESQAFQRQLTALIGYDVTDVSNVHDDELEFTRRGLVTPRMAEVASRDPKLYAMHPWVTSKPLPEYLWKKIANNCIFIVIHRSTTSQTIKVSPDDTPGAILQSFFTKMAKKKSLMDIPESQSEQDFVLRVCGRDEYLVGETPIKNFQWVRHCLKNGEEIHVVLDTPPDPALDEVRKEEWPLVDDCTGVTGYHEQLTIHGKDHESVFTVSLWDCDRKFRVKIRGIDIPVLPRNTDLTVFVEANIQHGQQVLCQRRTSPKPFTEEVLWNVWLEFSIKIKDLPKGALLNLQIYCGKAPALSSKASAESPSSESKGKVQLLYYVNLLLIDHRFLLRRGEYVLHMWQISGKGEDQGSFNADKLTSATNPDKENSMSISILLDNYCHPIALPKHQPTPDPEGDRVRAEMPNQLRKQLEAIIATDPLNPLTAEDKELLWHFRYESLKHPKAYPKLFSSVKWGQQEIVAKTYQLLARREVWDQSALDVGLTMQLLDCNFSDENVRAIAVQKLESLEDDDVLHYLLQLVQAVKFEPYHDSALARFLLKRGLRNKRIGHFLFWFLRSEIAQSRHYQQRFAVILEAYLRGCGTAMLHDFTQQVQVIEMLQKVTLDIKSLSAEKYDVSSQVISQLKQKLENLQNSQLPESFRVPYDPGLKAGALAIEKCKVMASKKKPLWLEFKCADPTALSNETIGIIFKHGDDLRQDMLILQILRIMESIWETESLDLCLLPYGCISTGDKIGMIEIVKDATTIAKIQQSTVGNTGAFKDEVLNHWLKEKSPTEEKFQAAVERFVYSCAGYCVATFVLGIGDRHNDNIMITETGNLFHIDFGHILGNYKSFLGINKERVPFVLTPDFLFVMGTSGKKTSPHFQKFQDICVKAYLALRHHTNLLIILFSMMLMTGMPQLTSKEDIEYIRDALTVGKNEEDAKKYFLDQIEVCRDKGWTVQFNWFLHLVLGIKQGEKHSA
Experimental: as §1, §2, §3

[1] = Toxicokinetics in the 7-day repeated intragastric administration study in SD rats; assay type: in vivo, Sprague-Dawley (SD) rats; settings: for AUC: Sprague-Dawley, rat, plasma, po, after the last administration, read-out: average system exposure AUC
Description: Liquid chromatography−mass spectrometry (detector: API4000, electrospray source (ESI) positive ion mode, column: Agilent ZORBAX XDB-C18 (3.5 μm, 2.1×50 mm)), which was used for the biological analysis of plasma sample.
(§4) 1) In the experiment, 112 rats (56 rats/sex) were divided into 14 groups by sex and body weight, wherein 70 rats were used for toxicology study (groups 1 to 7, 5 rats/sex/group) and 42 rats were used for toxicokinetics study (groups 8 to 14, 3 rats/sex/group).
(§5) 3) The animals in groups 2 and 9, groups 3 and 10, and groups 4 and 11 were intragastrically administered GDC-0077 at 10, 30 and 60 mg/kg, respectively.
(§6) 4) The animals in groups 5 and 12, groups 6 and 13, and groups 7 and 14 were intragastrically administered the compound of Example 51 at 10, 30 and 60 mg/kg, respectively.
(§7) 5) The animals were administered once a day for 7 consecutive days (the animals in groups 7 and 14 were administered for 6 consecutive days).
(§8) 7) During the experiment, items such as clinical observation, body weight, food intake, clinicopathological indicators (blood cell count, coagulation function, blood biochemistry), toxicokinetics and the like were studied.

PI3Kδ = molecular target: T3, PI3Kδ (Homo sapiens, UniProt O00329); experiment: ADP-Glo lipid kinase assay, PI3Kδ kinase activity; assay type: biochemical; settings: 0.1 nM enzyme, 90 min, 100 μM ATP
T3 construct: purchased Carna 11-103
T3 sequence (O00329 whole entry): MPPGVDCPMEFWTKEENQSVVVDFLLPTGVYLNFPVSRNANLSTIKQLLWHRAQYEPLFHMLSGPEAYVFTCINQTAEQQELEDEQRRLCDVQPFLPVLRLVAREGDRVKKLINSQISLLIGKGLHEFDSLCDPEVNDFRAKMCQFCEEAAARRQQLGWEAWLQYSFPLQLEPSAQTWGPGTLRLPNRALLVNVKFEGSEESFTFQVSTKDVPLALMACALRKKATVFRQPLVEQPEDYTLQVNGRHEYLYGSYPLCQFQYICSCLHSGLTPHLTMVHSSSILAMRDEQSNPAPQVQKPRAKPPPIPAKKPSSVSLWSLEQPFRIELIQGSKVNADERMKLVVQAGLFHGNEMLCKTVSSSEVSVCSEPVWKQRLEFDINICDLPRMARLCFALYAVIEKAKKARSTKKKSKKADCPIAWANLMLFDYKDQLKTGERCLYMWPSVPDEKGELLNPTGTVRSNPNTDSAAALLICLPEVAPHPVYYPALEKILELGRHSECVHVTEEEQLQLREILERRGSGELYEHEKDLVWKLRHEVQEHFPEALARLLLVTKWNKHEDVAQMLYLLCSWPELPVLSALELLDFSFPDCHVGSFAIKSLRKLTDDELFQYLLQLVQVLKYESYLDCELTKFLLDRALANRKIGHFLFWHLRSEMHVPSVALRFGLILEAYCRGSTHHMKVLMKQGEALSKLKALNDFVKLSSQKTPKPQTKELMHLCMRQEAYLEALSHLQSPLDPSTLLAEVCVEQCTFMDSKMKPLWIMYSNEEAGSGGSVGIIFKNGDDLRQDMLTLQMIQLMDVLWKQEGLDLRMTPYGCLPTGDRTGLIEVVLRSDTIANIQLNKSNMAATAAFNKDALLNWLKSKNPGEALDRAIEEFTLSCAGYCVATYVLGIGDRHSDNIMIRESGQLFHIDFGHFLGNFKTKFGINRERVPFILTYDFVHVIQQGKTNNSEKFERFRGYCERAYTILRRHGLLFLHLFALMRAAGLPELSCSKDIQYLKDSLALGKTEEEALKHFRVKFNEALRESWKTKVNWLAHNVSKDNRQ
T3 sequence (P27986 whole entry partner): as the sequence (P27986 whole entry partner) above
Experimental: as §1, §2, §3

PI3Kβ = molecular target: T4, PI3Kβ (Homo sapiens, UniProt P42338); experiment: ADP-Glo lipid kinase assay, PI3Kβ kinase activity; assay type: biochemical; settings: 0.4 nM enzyme, 90 min, 100 μM ATP
T4 construct: purchased Carna 11-102
T4 sequence (P42338 whole entry): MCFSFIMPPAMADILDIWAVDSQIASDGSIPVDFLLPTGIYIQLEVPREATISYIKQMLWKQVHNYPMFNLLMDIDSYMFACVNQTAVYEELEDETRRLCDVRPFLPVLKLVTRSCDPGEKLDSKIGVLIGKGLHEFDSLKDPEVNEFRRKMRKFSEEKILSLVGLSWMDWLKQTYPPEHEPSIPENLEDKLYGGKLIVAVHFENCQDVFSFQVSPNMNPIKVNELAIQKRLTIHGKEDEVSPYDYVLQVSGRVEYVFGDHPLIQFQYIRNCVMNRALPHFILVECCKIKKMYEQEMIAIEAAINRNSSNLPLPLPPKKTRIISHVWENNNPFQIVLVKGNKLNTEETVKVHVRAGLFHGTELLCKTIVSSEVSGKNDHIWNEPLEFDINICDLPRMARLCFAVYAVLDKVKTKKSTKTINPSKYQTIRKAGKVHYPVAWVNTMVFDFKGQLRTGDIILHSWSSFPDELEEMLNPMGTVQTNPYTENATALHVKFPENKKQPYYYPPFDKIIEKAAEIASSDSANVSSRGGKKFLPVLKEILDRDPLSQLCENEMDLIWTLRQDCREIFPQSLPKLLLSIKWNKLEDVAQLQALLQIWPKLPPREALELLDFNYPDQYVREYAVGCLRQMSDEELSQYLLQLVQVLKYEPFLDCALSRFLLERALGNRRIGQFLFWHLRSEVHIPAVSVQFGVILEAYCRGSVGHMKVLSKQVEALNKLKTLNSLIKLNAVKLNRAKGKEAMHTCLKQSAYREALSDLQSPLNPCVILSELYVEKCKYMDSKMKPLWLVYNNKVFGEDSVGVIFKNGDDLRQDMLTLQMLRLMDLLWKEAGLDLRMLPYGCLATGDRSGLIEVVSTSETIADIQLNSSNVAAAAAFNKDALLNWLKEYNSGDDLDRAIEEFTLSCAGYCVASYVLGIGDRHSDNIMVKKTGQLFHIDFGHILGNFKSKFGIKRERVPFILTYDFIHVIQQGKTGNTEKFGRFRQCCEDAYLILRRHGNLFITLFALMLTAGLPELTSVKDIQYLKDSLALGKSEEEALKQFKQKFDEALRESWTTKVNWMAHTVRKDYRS
T4 sequence (P27986 whole entry partner): as the sequence (P27986 whole entry partner) above
Experimental: as §1, §2, §3

[2] = Pharmacokinetic (PK) assay in mice; assay type: in vivo; settings: male, Balb/c, mouse, plasma, po, single intragastric 5 mg/kg
Experimental: The pharmacokinetic assay of the preferred compounds of the examples of the present invention in mice was carried out in Balb/c male mice (Shanghai Jiesijie Laboratory Animal Co., LTD). • Administration mode: single intragastric administration. • Administration dose: 5 mg/10 ml/kg (body weight). • Formulation: the compound was dissolved in 0.5% CMC-Na by ultrasound to obtain a clear solution or homogeneous suspension. • Sampling points: 0.5, 1, 2, 4, 6, 8 and 24 hours after administration. • Sample process: • 1) 0.1 mL of blood was taken from the orbit, placed in a K2-EDTA tube, and centrifuged for 5 to 20 minutes at room temperature at 1000 to 3000×g to separate the plasma, which was then stored at −80° C. • 2) 160 uL of acetonitrile was added to 40 uL of plasma sample for precipitation, and then the mixture was centrifuged for 5 to 20 minutes at 500 to 2000×g. • 3) 100 uL of processed supernatant was taken and analyzed by LC/MS/MS assay to determine the concentration of the test compound. • LC-MS/MS assay: • Liquid chromatography condition: Shimadzu LC-20AD pump • Mass spectrometry condition: AB Sciex API 4000 mass spectrometer • Chromatographic column: phenomenex Gemiu 5 μm C18 50×4.6 mm • Mobile phase: solution A was 0.1% aqueous formic acid solution, and solution B was acetonitrile • Flow rate: 0.8 mL/min • Elution time: 0-4 minutes gradient elution • Pharmacokinetics: […]
The main parameters were calculated using WinNonlin 6.1.

[3] = Toxicity test of a 7-day repeatedly intragastric administration in SD rats; assay type: in vivo
Description: as §4
2) As the vehicle control group, the animals in groups 1 and 8 were intragastrically administered 20% aqueous SBE-(3-CD (Captisol) solution.
as §5, §6, §7
6) The administration volume was 10 mL/kg.
as §8
8) All animals were euthanized on Day 8 (the animals in groups 7 and 14 were euthanized after administration on Day 6).
9) During the experiment, gross anatomy observation was carried out on animals in groups 1 to 7, animals in group 14 and dead animals (including animals in toxicokinetics study), and histopathological examination was carried out on abnormal tissues, gastrointestinal tissues (such as colon and cecum) and immune tissues (such as thymus).

[4] = system: PI3Kα mutant cancer cells HCC1954 (H1047R); experiment: Cell Titer-Glo proliferation inhibition, HCC1954; assay type: cell-based; settings: Homo sapiens, 48 to 96 hours
Experimental: (§9) Experimental method: The proliferation inhibitory effect of the compounds of the examples on PI3Kα mutant cancer cell lines HCC1954, HGC-27 and MKN1 was determined by Cell Titer-Glo method. The cell lines were cultured in RPMI 1640 medium (Gibco #22400089) containing 10% FBS (Gibco #10091148) and 1% P/S (Hyclone #SV30010) at 37° C. and 5% CO2. Before the experiment, the cells were collected and counted, and then the cell density was adjusted. The cells were inoculated in a white 96-well plate (Corning #3610) at a density of 1000 to 10000 cells/well, and incubated in an incubator at 37° C., 5% CO2 overnight. The compound solution of different concentrations was added, and corresponding vehicle control was set at the same time. The cell plate was further incubated in an incubator at 37° C., 5% CO2 for 48 to 96 hours. The cell plate and its content were equilibrated to room temperature. 20 to 100 μL of Cell Titer-Glo solution (Promega #G7573) was added to each well, and the plate was shaked well and incubated at room temperature in the dark for 5 to 30 minutes. The chemiluminescence value was measured by the BioTek SynergyH1 microplate reader.
(§10) The percentage inhibition data of the well treated by the compounds of the examples was calculated through the vehicle control well on the plate {% inhibition rate=100−(test compound value/vehicle control value)×100}. The IC50 value was calculated by fitting the data of different concentrations and corresponding percentage inhibition rates to a four-parameter nonlinear logic formula with GraphPad prism.

[5] = system: PI3Kα mutant cancer cells MKN1 (E545K); experiment: Cell Titer-Glo proliferation inhibition, MKN1; assay type: cell-based; settings: Homo sapiens, MKN-1, 48 to 96 hours
Experimental: as §9, §10

[6] = system: PI3Kα mutant cancer cells HGC-27 (E542K); experiment: Cell Titer-Glo proliferation inhibition, HGC-27; assay type: cell-based; settings: Homo sapiens, 48 to 96 hours
Experimental: as §9, §10

[7] = SD rats, 10, 30 and 60 mg/kg (low, middle, high dose)

Structure (SMILES): C[C@H](Nc1ccc2c(c1)OCCn1cc(N3C(=O)SC[C@H]3C(F)F)nc1-2)C(N)=O [Example 51, (S)-2-((2-((R)-4-(difluoromethyl)-2-oxothiazolidin-3-yl)-5,6-dihydrobenzo[f]imidazo[1,2-d][1,4]oxazepin-9-yl)amino)propanamide]
- IC50 (PI3Kα): 0.2 nM
- Selectivity of PI3Kα vs PI3Kβ (PI3Kα): 840
- Selectivity of PI3Kα vs PI3Kγ (PI3Kα): 450
- Selectivity of PI3Kα vs PI3Kδ (PI3Kα): 245
- IC50 (PI3Kγ): 90 nM
- Cmax and AUC(0-24h) compared with GDC-0077 ([1]; 30 mg/kg): significantly higher than those of GDC-0077
- AUC ([1]; 10 mg/kg intragastric once a day, female): 3170 ng·h/mL
- AUC ([1]; 10 mg/kg intragastric once a day, male): 2110 ng·h/mL
- AUC ([1]; 30 mg/kg intragastric once a day, female): 15900 ng·h/mL
- AUC ([1]; 30 mg/kg intragastric once a day, male): 11400 ng·h/mL
- system exposure compared with GDC-0077 ([1]; same dose): significantly higher than that of GDC-0077 at the same dose
- IC50 (PI3Kδ): 49 nM
- IC50 (PI3Kβ): 168 nM
- AUC(0-t) ([2]; read-out: Area under curve AUC0-t): 2180 ng·h/mL
- AUC(0-inf) ([2]; read-out: Area under curve AUC0-∞): 2270 ng·h/mL
- half-life ([2]; read-out: Half-life t1/2(h) (converted)): 1.6 h
- MRT ([2]; read-out: Mean residence time MRT): 2.2 h
- Tmax ([2]; read-out: Peak time tmax): 0.5 h
- Cmax ([2]; read-out: Plasma concentration Cmax): 1060 ng/mL
- main target organs of the toxicity ([3]; SD rats): gastrointestinal tissues (such as stomach and cecum) and immune tissues (such as thymus)
- tolerance compared with GDC-0077 ([3]; SD rats): better than that of GDC-0077
- Blood biochemistry ([3]; SD rats, 10, 30 and 60 mg/kg): In 60 mg/kg group, AST, Glu and UREA increased in both male and female animals; in 30 mg/kg group, AST and UREA increased in both male and female animals, and Glu increased in male animals; and in 10 mg/kg group, AST increased in both male and female animals
- Blood cell counting and coagulation function ([3]; SD rats, 10, 30 and 60 mg/kg): In each dose group, Retic decreased in both male and female animals; and in 30 mg/kg group and 60 mg/kg group, Neut increased and PLT decreased in both male and female animals
- Pathology, pathological changes under the microscope ([3]; SD rats, 10, 30 and 60 mg/kg): bleeding and atrophy of glandular gastric mucosa; bleeding of cecal mucosa, atrophy of goblet cell, atrophy of colonic mucosa goblet cell; atrophy of splenic white pulp; and atrophy of thymic cortex or cortex and medulla, increase in tingible body macrophages and the like
- Body weight and food intake [3, 7]: In the low-dose, middle-dose and high-dose groups, the final body weight declined, and the corresponding food intake also declined
- Clinical observation [3, 7]: In the middle-dose and high-dose groups, abnormal symptoms such as arched back, loose stools, perianal contamination and fluffy coat were observed
- Near-death/death ([3]; SD rats, dose of 60 mg/kg): near-dead/dead animals were found
- lethal dose ([3]; SD rats, intragastric once/day for 7 days): 60 mg/kg
- MTD at 7 days ([3]; both sexes, Sprague-Dawley, rat, in vivo, po, SD rats, intragastric once/day for 7 days, read-out: maximum tolerated dose (MTD)): 30 mg/kg

- IC50 [4]: 601 nM
- IC50 (PI3Kα): 2.1 nM
- Selectivity of PI3Kα vs PI3Kβ (PI3Kα): 1514
- Selectivity of PI3Kα vs PI3Kγ (PI3Kα): 158
- Selectivity of PI3Kα vs PI3Kδ (PI3Kα): 68
- IC50 (PI3Kγ): 332 nM
- IC50 [5]: 584 nM
- IC50 [6]: 433 nM
- IC50 (PI3Kδ): 142 nM
- IC50 (PI3Kβ): 3180 nM
Structure (SMILES): C[C@H](Nc1ccc2c(c1)OCCn1cc(N3C(=O)CN(C)C[C@H]3C(F)F)nc1-2)C(N)=O [Example 69, (S)-2-((2-((S)-2-(difluoromethyl)-4-methyl-6-oxopiperazin-1-yl)-5,6-dihydrobenzo[f]imidazo[1,2-d][1,4]oxazepin-9-yl)amino)propanamide]

- IC50 [4]: 140 nM
- IC50 (PI3Kα): 1.3 nM
- Selectivity of PI3Kα vs PI3Kβ (PI3Kα): 146
- Selectivity of PI3Kα vs PI3Kγ (PI3Kα): 57
- Selectivity of PI3Kα vs PI3Kδ (PI3Kα): 38
- IC50 (PI3Kγ): 74 nM
- IC50 [5]: 398 nM
- IC50 [6]: 371 nM
- IC50 (PI3Kδ): 50 nM
- IC50 (PI3Kβ): 190 nM
Structure (SMILES): C[C@H](Nc1ccc2c(c1)OCCn1cc(N3C(=O)OC[C@H]3CC#N)nc1-2)C(N)=O [Example 118, (S)-2-((2-((R)-4-(cyanomethyl)-2-oxooxazolidin-3-yl)-5,6-dihydrobenzo[f]imidazo[1,2-d][1,4]oxazepin-9-yl)amino)propanamide]
